In a compilation of properties of binary mixtures (doi:10.1016/j.fluid.2020.112621):

Experiment: xn = mol fraction of the nth substance listed
Conditions: 101 kPa

CC(=O)O.CC(=O)[O-].CC[NH+](CC)CCO + CCCC[n+]1ccn(C)c1.COP(=O)([O-])OC
viscosity [mPa·s]
Conditions	x1 = 0.0748	x1 = 0.3316	x1 = 0.4263	x1 = 0.5275	x1 = 0.6343	x1 = 0.7493	x1 = 0.8567	x1 = 1
278.15 K	2020	–	363	–	329	314	310	340
283.15 K	1280.5	315	254.3	234.7	229	–	210	227
288.15 K	840	224.3	183.7	–	164	157.9	146.3	156.1
293.15 K	–	164.3	135.3	124	120.6	–	104.7	110.4
298.15 K	396	123.7	102.2	–	–	88	–	80.2
303.15 K	–	95.2	79	72.4	70.3	67.9	57.8	–
308.15 K	208	–	62.2	57	55.2	–	44.3	45.3
313.15 K	155.8	58.3	48.55	–	–	41.14	34.65	35.12
318.15 K	119.1	48.01	40.43	36.97	35.71	34.54	–	27.71
323.15 K	92.7	39.18	33.11	–	–	28.27	–	22.22
328.15 K	–	32.29	–	25.04	24.08	–	18.26	18.08
333.15 K	58.8	24.59	20.72	18.82	–	–	15.16	14.9
338.15 K	–	22.48	19.2	17.53	16.79	16.24	12.72	12.45
343.15 K	39.38	18.97	16.24	14.82	14.16	–	10.79	10.49
348.15 K	32.81	16.13	13.83	12.6	–	11.59	9.24	–
353.15 K	27.63	12.97	11.07	10.04	9.54	9.16	7.98	7.67
358.15 K	23.49	11.89	10.22	–	8.82	8.46	–	–
363.15 K	20.16	10.32	8.87	8.06	7.63	7.29	6.09	–
368.15 K	17.45	9.01	7.75	–	–	6.33	5.37	5.09
373.15 K	15.23	7.79	6.7	6.06	5.71	5.43	4.76	4.5

CCCC[n+]1ccn(C)c1.O=S(=O)([N-]S(=O)(=O)C(F)(F)F)C(F)(F)F + CC(=O)[O-].CCCC[NH2+]CCO
x2 = 0
Conditions	viscosity [mPa·s]
283.15 K	109
298.15 K	51.73
303.15 K	41.8
308.15 K	34.3
313.15 K	28.55
323.15 K	20.5
328.15 K	17.64
333.15 K	15.33
338.15 K	13.43
343.15 K	11.85
348.15 K	10.53
353.15 K	9.41
358.15 K	8.46
363.15 K	7.65
368.15 K	6.95
373.15 K	6.34
